Data published in US11214594B2, “Antimicrobial peptide having synergistic antibacterial effect with antibiotics on multidrug resistant bacteria, and use thereof” (priority 2016, dated 2022).
≈ marks a conversion by molar mass, not a printed value. Where a SMILES comes first, the peptide text is derived from it. [ ]: non-standard residue; d: D form.

What was measured:
[1] = system: MDRAB 12036; assay type: cell-based, Acinetobacter baumannii
Procedure, shortened: (§1)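 Each strain is brought to 2×10^6 CFU in nutrient-sufficient Mueller-Hinton medium and dispensed into wells. Peptide solutions, stepwise diluted 2:1 in the same medium, are then added. The minimal concentration preventing growth gives the MIC.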

[2] = system: MDRAB 12035; assay: MIC of antibiotic during combined treatment with antimicrobial peptide; assay type: cell-based, Acinetobacter baumannii
Procedure, shortened: (§2)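 Strains in MH medium at 2×10^6 CFU/ml were mixed with peptide diluted stepwise (2:1) from its MIC, then antibiotic dilutions in MH medium were added to give the antibiotic MIC. The reversed set-up, peptide titrated against fixed antibiotic, gave the peptide MIC.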

[3] = system: A. baumannii; assay: MIC of antimicrobial peptide during combined treatment with antibiotic; assay type: cell-based, Acinetobacter baumannii
Procedure, shortened: as §2

[4] = system: MDRAB 12035; assay: as above; assay type: cell-based, Acinetobacter baumannii
Procedure, shortened: as §2

[5] = system: B. subtilis; assay: microbe, parasite or virus in culture; assay type: cell-based, Bacillus subtilis
Procedure, shortened: as §1

[6] = system: MDREC 1238; assay type: cell-based, Escherichia coli
Procedure, shortened: as §1

[7] = peptide treatment concentration 1 μg/ml
[8] = peptide treatment concentration 2 μg/ml
[9] = peptide treatment concentration 4 μg/ml
[10] = peptide treatment concentration 6 μg/ml
[11] = peptide treatment concentration 8 μg/ml
[12] = peptide treatment concentration 16 μg/ml
[13] = peptide treatment concentration 32 μg/ml
[14] = peptide treatment concentration 64 μg/ml
[15] = erythromycin 4 μg/ml (Conc./MIC 1/8)
[16] = erythromycin 8 μg/ml (Conc./MIC 1/4)
[17] = erythromycin 16 μg/ml (Conc./MIC 1/2)
[18] = erythromycin 32 μg/ml (Conc./MIC 1)
[19] = vancomycin 512 μg/ml (Conc./MIC 1/2)
[20] = vancomycin 1024 μg/ml (Conc./MIC 1)

## CC[C@H](C)[C@H](NC(=O)[C@H](CCCCN)NC(=O)[C@H](Cc1c[nH]c2ccccc12)NC(=O)[C@@H](N)CCCNC(=N)N)C(=O)N[C@@H](Cc1ccccc1)C(=O)N[C@@H](CCCCN)C(=O)N[C@@H](CCCCN)C(=O)N[C@H](C(=O)N[C@H](CCCCN)C(=O)N[C@@H](CCCCN)C(=O)N[C@@H](CC(C)C)C(=O)N[C@@H](CC(C)C)C(=O)N[C@@H](Cc1c[nH]cn1)C(=O)N[C@@H](CO)C(=O)N[C@@H](Cc1ccccc1)C(=O)N[C@@H](CCCCN)C(=O)N[C@@H](CCCCN)C(=O)N[C@@H](Cc1ccccc1)C(N)=O)[C@@H](C)CC [PapMA-15, RWK IFK KIk KLL HSF KKF-NH2] (H-RWKIFKKI[dK]KLLHSFKKF-NH2; N-terminus assumed)
[1]
  Minimal inhibitory concentration MIC: 32 µg/mL (≈ 13.5 µM)
[2]; [7]
  Erythromycin MIC during combined treatment with peptide: 32 µg/mL
  Linezolid MIC during combined treatment with peptide: >128 µg/mL
  Vancomycin MIC during combined treatment with peptide: >128 µg/mL
[2]; [8]
  Erythromycin MIC during combined treatment with peptide: 32 µg/mL
  Linezolid MIC during combined treatment with peptide: >128 µg/mL
  Vancomycin MIC during combined treatment with peptide: >128 µg/mL
[2]; [9]
  Erythromycin MIC during combined treatment with peptide: 16 µg/mL
  Linezolid MIC during combined treatment with peptide: 64 µg/mL
  Vancomycin MIC during combined treatment with peptide: 128 µg/mL
[2]; [10]
  Erythromycin MIC during combined treatment with peptide: 2 µg/mL
  Linezolid MIC during combined treatment with peptide: 64 µg/mL
  Vancomycin MIC during combined treatment with peptide: 32 µg/mL
[2]; [11]
  Erythromycin MIC during combined treatment with peptide: 1 µg/mL
  Linezolid MIC during combined treatment with peptide: 32 µg/mL
  Vancomycin MIC during combined treatment with peptide: 32 µg/mL
[2]; [12]
  Erythromycin MIC during combined treatment with peptide: 0.25 µg/mL
  Linezolid MIC during combined treatment with peptide: 4 µg/mL
  Vancomycin MIC during combined treatment with peptide: 16 µg/mL
[2]; [13]
  Erythromycin MIC during combined treatment with peptide: 0 µg/mL
  Linezolid MIC during combined treatment with peptide: 0 µg/mL
  Vancomycin MIC during combined treatment with peptide: 0 µg/mL
[2]; [14]
  Erythromycin MIC during combined treatment with peptide: 0 µg/mL
  Linezolid MIC during combined treatment with peptide: 0 µg/mL
  Vancomycin MIC during combined treatment with peptide: 0 µg/mL
[3]; [15]
  Peptide MIC during treatment with antibiotic: 4 µg/mL
[3]; [16]
  Peptide MIC during treatment with antibiotic: 4 µg/mL
[3]; [17]
  Peptide MIC during treatment with antibiotic: 4 µg/mL
[3]; [18]
  Peptide MIC during treatment with antibiotic: 0 µg/mL
[3]; linezolid 32 μg/ml (Conc./MIC 1/8)
  Peptide MIC during treatment with antibiotic: 8 µg/mL
[3]; linezolid 64 μg/ml (Conc./MIC 1/4)
  Peptide MIC during treatment with antibiotic: 4 µg/mL
[3]; linezolid […] (Conc./MIC 1)
  Peptide MIC during treatment with antibiotic: 0 µg/mL
[3]; linezolid […] (Conc./MIC 1/2)
  Peptide MIC during treatment with antibiotic: 2 µg/mL
[3]; [19]
  Peptide MIC during treatment with antibiotic: 0.25 µg/mL
[3]; [20]
  Peptide MIC during treatment with antibiotic: 0 µg/mL
[3]; vancomycin […] (Conc./MIC 1/4)
  Peptide MIC during treatment with antibiotic: 0.5 µg/mL
[3]; vancomycin […] (Conc./MIC 1/8)
  Peptide MIC during treatment with antibiotic: 2 µg/mL
[4]; [15]
  Peptide MIC during treatment with erythromycin: 4 µg/mL
[4]; [16]
  Peptide MIC during treatment with erythromycin: 4 µg/mL
[4]; [17]
  Peptide MIC during treatment with erythromycin: 4 µg/mL
[4]; [18]
  Peptide MIC during treatment with erythromycin: 0 µg/mL
[4]; linezolid 64 μg/ml (Conc./MIC 1/8)
  Peptide MIC during treatment with linezolid: 4 µg/mL
[4]; linezolid 512 μg/ml (Conc./MIC 1)
  Peptide MIC during treatment with linezolid: 0 µg/mL
[4]; linezolid […] (Conc./MIC 1/2)
  Peptide MIC during treatment with linezolid: 1 µg/mL
[4]; linezolid […] (Conc./MIC 1/4)
  Peptide MIC during treatment with linezolid: 4 µg/mL
[4]; [19]
  Peptide MIC during treatment with vancomycin: 2 µg/mL
[4]; [20]
  Peptide MIC during treatment with vancomycin: 1 µg/mL
[4]; vancomycin […] (Conc./MIC 1/4)
  Peptide MIC during treatment with vancomycin: 2 µg/mL
[4]; vancomycin […] (Conc./MIC 1/8)
  Peptide MIC during treatment with vancomycin: 4 µg/mL
[5]
  Minimal inhibitory concentration MIC: >128 µg/mL
[6]
  Minimal inhibitory concentration MIC: 32 µg/mL (≈ 13.5 µM)
